We go through five compounds from ChEMBL document CHEMBL1151576, “Synthesis of cyclohexyl analogs of restricticin” (Bioorg Med Chem Lett, 1994).

In brackets after ≈: the same amount, converted by molar mass.

Assay type in all cases: functional
Test [1] concerns Cryptococcus neoformans. Nature of the test: In vitro antifungal activity against Cryptococcus neoformans CY1057 was determined at pH 7 for inoculum size of 1*10e4 cfu/ml by broth dilution method.
For test [2], the system named is Aspergillus fumigatus. Kind of test: In vitro antifungal activity against Aspergillus fumigatus CF1003 was determined at pH 7 for inoculum size of 1*10e4 cfu/ml by broth dilution method.
For test [3], the system named is Candida albicans. Kind of test: In vitro antifungal activity against Candida albicans CY3003 was determined at pH 7 for inoculum size of 1*10e4 cfu/ml by broth dilution method.
For test [4], the system named is Candida albicans. Nature of the test: In vitro antifungal activity against Candida albicans CY1005 was determined at pH 7 for inoculum size of 1*10e4 cfu/ml by broth dilution method.
For test [5], the system named is Candida albicans. Nature of the test: In vitro antifungal activity against Candida albicans CY1002 was determined at pH 7 for inoculum size of 1*10e4 cfu/ml by broth dilution method.
The test system of test [6] is Aspergillus fumigatus. Nature of the test: In vitro antifungal activity against Aspergillus fumigatus CF1004 was determined at pH 7 for inoculum size of 1*10e4 cfu/ml by broth dilution method.
Test [7] deals with Cryptococcus neoformans. Nature of the test: In vitro antifungal activity against Cryptococcus neoformans CY1059 was determined at pH 7 for inoculum size of 1*10e4 cfu/ml by broth dilution method.

As for `CCc1ccc(CC[C@@H]2CCC(C)(C)[C@H](OC)[C@H]2Cn2ccnc2)cc1`, the 80% effect concentration (IC80) in the test on Cryptococcus neoformans [1] turned out to be 0.12 µg/mL (≈ 0.338 µM); in the test on Aspergillus fumigatus [2], 0.37 µg/mL (≈ 1.04 µM); with Candida albicans [3], 0.0025 µg/mL (≈ 0.00705 µM); in the test with Candida albicans [4], 0.012 µg/mL (≈ 0.0338 µM); in the test on Candida albicans [5], 0.059 µg/mL (≈ 0.166 µM); in the test with Aspergillus fumigatus [6], 0.19 µg/mL (≈ 0.536 µM). The IC80 in the test with Cryptococcus neoformans [7] was determined as 0.14 µg/mL (≈ 0.395 µM).

With `CCCCCCC/C=C/C[C@@H]1OC[C@H](C)[C@H](OC)[C@H]1COC(=O)CN`, the IC80 with Cryptococcus neoformans [1] is 2.19 µg/mL (≈ 6.16 µM); in the test with Aspergillus fumigatus [2], 0.73 µg/mL (≈ 2.05 µM); in the test with Candida albicans [3], 0.97 µg/mL (≈ 2.73 µM); in the test on Candida albicans [4], 1.58 µg/mL (≈ 4.44 µM); with Candida albicans [5] it was 1.8 µg/mL (≈ 5.06 µM); in the test with Aspergillus fumigatus [6], 0.52 µg/mL (≈ 1.46 µM). In the test with Cryptococcus neoformans [7], the 80% effect level (IC80) was put at 3.2 µg/mL (≈ 9 µM).

Regarding `CCc1ccc(CC[C@@H]2CCC(C)(C)[C@H](OC)[C@H]2Cn2cncn2)cc1`, the 80% effect concentration (IC80) in the test on Cryptococcus neoformans [1] was 0.82 µg/mL (≈ 2.31 µM); in the test on Aspergillus fumigatus [2], over 200 µg/mL; with Candida albicans [3] it was 0.012 µg/mL (≈ 0.0338 µM); in the test on Candida albicans [4] it was 0.042 µg/mL (≈ 0.118 µM); with Candida albicans [5] it was 0.098 µg/mL (≈ 0.276 µM); in the test on Aspergillus fumigatus [6], over 200 µg/mL. In the test with Cryptococcus neoformans [7], this compound yielded an IC80 of 0.37 µg/mL (≈ 1.04 µM).

For the compound `OC(Cn1cncn1)(Cn1cncn1)c1ccc(F)cc1F` [FLUCONAZOLE], the 80% effect concentration (IC80) in the test with Cryptococcus neoformans [1] came to 3.8 µg/mL (≈ 12.4 µM); in the test on Aspergillus fumigatus [2] it was 200 µg/mL (≈ 653 µM); in the test with Candida albicans [3] it was 1.1 µg/mL (≈ 3.59 µM); with Candida albicans [4] it was 2.8 µg/mL (≈ 9.14 µM); with Candida albicans [5] it was 2.6 µg/mL (≈ 8.49 µM); in the test on Aspergillus fumigatus [6] it was 180 µg/mL (≈ 588 µM). Besides, in the test with Cryptococcus neoformans [7], the 80% effect concentration (IC80) is 11 µg/mL (≈ 35.9 µM).

Regarding `CCC(C)n1ncn(-c2ccc(N3CCN(c4ccc(OC[C@H]5CO[C@](Cn6cncn6)(c6ccc(Cl)cc6Cl)O5)cc4)CC3)cc2)c1=O` (stereo not given in full) [ITRACONAZOLE], the IC80 was 0.022 µg/mL (≈ 0.0312 µM) in the test with Cryptococcus neoformans [1]; 0.02 µg/mL (≈ 0.0283 µM) with Aspergillus fumigatus [2]; 0.0012 µg/mL (≈ 0.0017 µM) in the test with Candida albicans [3]; 0.0056 µg/mL (≈ 0.00794 µM) with Candida albicans [4]; 0.03 µg/mL (≈ 0.0425 µM) with Candida albicans [5]; under 0.0004 µg/mL with Aspergillus fumigatus [6]. Also, it took 0.046 µg/mL (≈ 0.0652 µM) to reach the 80% level in the test on Cryptococcus neoformans [7] (IC80).
